Laboratory results published in ChEMBL document CHEMBL5120893, “A Neuropeptide Y/F-like Polypeptide Derived from the Transcriptome of Turbinaria peltata Suppresses LPS-Induced Astrocytic Inflammation” (J Nat Prod, 2022).
Calls of active or inactive are those of the source. No cut-off for these calls is given here. Residues, ends and D or L forms follow the SMILES beside them.

Columns and labels:
C8-D1A [1] = test: Effect on LPS-induced inflammasome activation in mouse C8D1A cells assessed as reduction in caspase 1 protein level at 0.75 to 3 uM by Western blotting analysis; assay type: functional, cell-based; details: dose 0.75-3 µM
C8-D1A [2] = test: Antiinflammatory activity against mouse C8D1A cells assessed as inhibition of LPS-induced NO production at 3 uM measured after 24 hrs by Griess method; assay type: functional, cell-based
C8-D1A [3] = test: Antiinflammatory activity against mouse C8D1A cells assessed as inhibition of LPS-induced NO production measured after 24 hrs by Griess method; assay type: functional, cell-based; details: dose 0.75-6 µM, DDE = dose-dependent effect
C8-D1A [4] = test: Inhibition of LPS-induced mouse C8D1A cell viability loss assessed as restoration of cell viability at 0.75 to 6 uM after 24 hrs by MTT assay; assay type: functional, cell-based; details: dose 0.75-6 µM
C8-D1A [5] = test: Antiinflammatory activity against mouse C8D1A cells assessed as inhibition of LPS-induced iNOS production by Western blotting analysis; assay type: functional, cell-based; details: dose 0.75-3 µM, DDE = dose-dependent effect
C8-D1A [6] = test: Antiinflammatory activity against mouse C8D1A cells assessed as inhibition of LPS-induced IL-1beta mRNA expression at 0.75 to 3 uM pretreated for 4 hrs followed by LPS stimulation measured after 24 hrs by real time PCR analysis; assay type: functional, cell-based; details: dose 0.75-3 µM, time 28.0 hrs
C8-D1A [7] = test: Antiinflammatory activity against mouse C8D1A cells assessed as inhibition of LPS-induced GFAP production at 0.75 to 3 uM pretreated for 4 hrs followed by LPS stimulation measured after 24 hrs by DMI-8 microscopy; assay type: functional, cell-based; details: dose 0.75-3 µM, time 28.0 hrs
C8-D1A [8] = test: Antiinflammatory activity against mouse C8D1A cells assessed as inhibition of LPS-induced iNOS expression at 3 uM in presence of Y1R antagonist BIIE-0246 by Western blotting analysis; assay type: functional, cell-based
C8-D1A [9] = test: Antiinflammatory activity against mouse C8D1A cells assessed as inhibition of LPS-induced IL-6 mRNA expression at 0.75 to 3 uM pretreated for 4 hrs followed by LPS stimulation measured after 24 hrs by real time PCR analysis; assay type: functional, cell-based; details: dose 0.75-3 µM, time 28.0 hrs
C8-D1A [10] = test: Antiinflammatory activity against mouse C8D1A cells assessed as inhibition of LPS-induced ROS production measured after 24 hrs by fluorescent CM-H2DCFDA based flow cytometry; assay type: functional, cell-based; details: dose 0.75-3 µM, DDE = dose-dependent effect
C8D1A = test: Inhibition of NFkappaB p65 phosphorylation at […] in LPS-induced mouse C8D1A cells at 0.75 to 3 uM pretreated for 4 hrs followed by LPS stimulation measured after 24 hrs by Western blotting analysis; assay type: cell-based; details: dose 0.75-3 µM
C8-D1A [11] = test: Antiinflammatory activity against mouse C8D1A cells assessed as inhibition of LPS-induced iNOS expression at 3 uM by Western blotting analysis; assay type: functional, cell-based
[12] = molecular target: Inhibitor of nuclear factor kappa-B kinase subunit alpha/beta (Mus musculus) (UniProt Q60680+O88351); test: Inhibition of IKKalpha/beta phosphorylation at Ser176/180 in LPS-induced mouse C8D1A cells at 0.75 to 3 uM pretreated for 4 hrs followed by LPS stimulation measured after 24 hrs by Western blotting analysis; assay type: cell-based; details: dose 0.75-3 µM
C8-D1A [13] = test: Antiinflammatory activity against mouse C8D1A cells assessed as inhibition of LPS-induced IL-6 production at 0.75 to 3 uM pretreated for 4 hrs followed by LPS stimulation measured after 24 hrs by ELISA; assay type: functional, cell-based; details: dose 0.75-3 µM, time 28.0 hrs
[14] = molecular target: T1, Inhibitor of nuclear factor kappa-B kinase subunit beta (Mus musculus) (UniProt O88351); test: Inhibition of IkappaBalpha phosphorylation at […] in LPS-induced mouse C8D1A cells at 0.75 to 3 uM pretreated for 4 hrs followed by LPS stimulation measured after 24 hrs by Western blotting analysis; assay type: cell-based; details: dose 0.75-3 µM
T1 sequence (whole entry): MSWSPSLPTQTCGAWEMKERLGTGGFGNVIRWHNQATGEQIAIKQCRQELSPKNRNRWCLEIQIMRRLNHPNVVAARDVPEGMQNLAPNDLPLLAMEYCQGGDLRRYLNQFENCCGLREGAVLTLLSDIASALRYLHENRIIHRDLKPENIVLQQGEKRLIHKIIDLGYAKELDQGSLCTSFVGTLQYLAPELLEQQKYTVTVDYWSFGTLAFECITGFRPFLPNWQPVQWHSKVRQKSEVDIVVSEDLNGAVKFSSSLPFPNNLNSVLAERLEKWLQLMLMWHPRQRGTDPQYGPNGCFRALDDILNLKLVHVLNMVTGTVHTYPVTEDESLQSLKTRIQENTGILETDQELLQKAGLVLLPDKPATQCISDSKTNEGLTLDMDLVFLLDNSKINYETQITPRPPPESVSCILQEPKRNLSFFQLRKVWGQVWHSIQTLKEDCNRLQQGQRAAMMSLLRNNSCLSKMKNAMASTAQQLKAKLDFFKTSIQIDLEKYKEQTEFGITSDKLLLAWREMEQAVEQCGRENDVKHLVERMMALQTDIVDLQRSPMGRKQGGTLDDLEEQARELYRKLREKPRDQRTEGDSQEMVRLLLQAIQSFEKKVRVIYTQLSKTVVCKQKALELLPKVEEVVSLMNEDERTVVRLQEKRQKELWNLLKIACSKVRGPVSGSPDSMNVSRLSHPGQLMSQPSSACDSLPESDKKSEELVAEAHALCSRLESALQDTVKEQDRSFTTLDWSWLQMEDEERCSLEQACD

C8-D1A [15] = test: Antiinflammatory activity against mouse C8D1A cells assessed as inhibition of LPS-induced IL-1beta production at 0.75 to 3 uM pretreated for 4 hrs followed by LPS stimulation measured after 24 hrs by ELISA; assay type: functional, cell-based; details: dose 0.75-3 µM, time 28.0 hrs
C8-D1A [16] = test: Antiinflammatory activity against mouse C8D1A cells assessed as inhibition of LPS-induced TNFalpha production at 0.75 to 3 uM pretreated for 4 hrs followed by LPS stimulation measured after 24 hrs by ELISA; assay type: functional, cell-based; details: dose 0.75-3 µM, time 28.0 hrs
C8-D1A [17] = test: Antiinflammatory activity against mouse C8D1A cells assessed as inhibition of LPS-induced TNFalpha mRNA expression at 0.75 to 3 uM pretreated for 4 hrs followed by LPS stimulation measured after 24 hrs by real time PCR analysis; assay type: functional, cell-based; details: dose 0.75-3 µM, time 28.0 hrs
C8-D1A [18] = test: Antiinflammatory activity against mouse C8D1A cells assessed as inhibition of LPS-induced NO production at 3 uM measured after 24 hrs in presence of Y1R antagonist BIIE-0246 by Griess method; assay type: functional, cell-based
C8-D1A [19] = test: Cytotoxicity against mouse C8D1A cells assessed as cell viability at 0.75 to 50 uM after 24 hrs by MTT assay; assay type: toxicity, cell-based; details: dose 0.75-50 µM
C8-D1A [20] = test: Effect on LPS-induced inflammasome activation in mouse C8D1A cells assessed as reduction in NLRP3 protein level at 0.75 to 3 uM by Western blotting analysis; assay type: functional, cell-based; details: dose 0.75-3 µM

CC[C@H](C)[C@H](NC(=O)[C@@H](NC(=O)[C@@H](NC(=O)[C@H](Cc1ccc(O)cc1)NC(=O)[C@H](Cc1ccc(O)cc1)NC(=O)CNC(=O)[C@H](C)NC(=O)[C@H](CC(C)C)NC(=O)[C@H](CC(=O)O)NC(=O)[C@H](CO)NC(=O)[C@H](CC(C)C)NC(=O)[C@H](Cc1ccc(O)cc1)NC(=O)[C@H](C)NC(=O)[C@H](CC(N)=O)NC(=O)[C@H](CC(C)C)NC(=O)[C@H](CCC(=O)O)NC(=O)[C@H](C)NC(=O)[C@H](CCSC)NC(=O)[C@H](CO)NC(=O)[C@H](CCCCN)NC(=O)[C@H](Cc1ccccc1)NC(=O)[C@H](CO)NC(=O)[C@H](CCC(=O)O)NC(=O)[C@@H]1CCCN1C(=O)[C@H](CCCNC(=N)N)NC(=O)[C@H](CCCCN)NC(=O)[C@@H]1CCCN1C(=O)[C@@H]1CCCN1C(=O)CNC(=O)CNC(=O)[C@@H](N)C(C)C)[C@@H](C)O)C(C)C)C(=O)NCC(=O)N[C@@H](CCCNC(=N)N)C(=O)N1CCC[C@H]1C(=O)N[C@@H](CCCNC(=N)N)C(=O)N[C@@H](Cc1ccccc1)C(=O)O (H-VGGPPKRPESFKSMAELNAYLSDLAGYYTVIGRPRF-OH)
inhibition (C8-D1A [1]): Active
inhibition (C8-D1A [2]): Active
inhibition (C8-D1A [3]): Dde
Activity (C8-D1A [4]): Active
inhibition (C8-D1A [5]): Dde
inhibition (C8-D1A [6]): Active
inhibition (C8-D1A [7]): Active
inhibition (C8-D1A [8]): Active
inhibition (C8-D1A [9]): Active
inhibition (C8-D1A [10]): Dde
inhibition (C8D1A): Active
inhibition (C8-D1A [11]): Active
inhibition [12]: Active
inhibition (C8-D1A [13]): Active
inhibition [14]: Active
inhibition (C8-D1A [15]): Active
inhibition (C8-D1A [16]): Active
inhibition (C8-D1A [17]): Active
inhibition (C8-D1A [18]): Active
Activity (C8-D1A [19]): Non-Toxic
inhibition (C8-D1A [20]): Active
